Assay results reported in US20170209468A1, “POLY(BETA-AMINO ESTER) CONJUGATES FOR CARTILAGE AGENT DELIVERY AND METHODS” (University College Cardiff Consultants Limited, priority 2014, published 2017).

Test system: chondrocytes
Experiment: Viability of chondrocytes after exposure (MTT and LDH assays)
Type: cell-based, bovine
Conditions: 15 μl of DEX 4 mg/ml solution per 1 ml well, up to 3 days
Method: The cartilage samples as described in Example 4 underwent a 1 hour predigestion stage with 0.4% w/v pronase (Sigma, UK), dissolved in 4-(2-hydroxyethyl)-1-piperazineethanesulfonic acid (HEPES)-buffered DMEM (Gibco, UK) supplemented with 50 U/50 mg/mL penicillin-streptomycin (Sigma Aldrich) and 2.5 mg/mL amphotericin B. Cartilages samples were placed in sterile eppendorfs containing the filter-sterilized enzyme solution by passage through a […] filter at a concentration of 1 ml solution for 5 cartilage extracts. The samples were incubated at 37° C. and the cartilage fragments were then washed twice with sterile PBS and digested with 1 ml each 6 cartilage sample of collagenase II (Sigma, UK) 0.1% w/v for 16 h at 37° C. Collagenase II was prepared in 4-(2-hydroxyethyl)-1-piperazineethanesulfonic acid (HEPES)-buffered DMEM (Gibco, UK) supplemented with 50 U/50 mg/mL penicillin-streptomycin (Sigma Aldrich and filter sterilised. […]
Chondrocytes viability was assessed through MTT and LDH assay kits (Sigma, UK) according to manufacturer's protocols. […]

C[C@@H]1C[C@H]2[C@@H]3CCC4=CC(=O)C=C[C@]4(C)[C@@]3(F)[C@@H](O)C[C@]2(C)[C@@]1(O)C(=O)COP(=O)(O)O [DEX-P, dexamethasone phosphate]
chondrocytes viability (MTT and LDH): same viability
